Measured values from patent EP1247803A2, “Indolinone compounds suitable for modulation of protein kinases” (Sugen, Inc., priority 1996, dated 1998).

Key:
[1] = target: PDGF-R (Homo sapiens, UniProt P09619); assay: PDGF-R ELISA; assay type: cell-based
Excerpt: A PDGF-R ELISA is described in International Patent Publication No. WO 96/40116, published December 19, 1996 by Tang et al.

[2] = target: T1, EGFR (Homo sapiens, UniProt P00533); assay: EGFR ELISA assay (in vitro kinase activity, EGFR captured from A431 cell lysate); assay type: biochemical; parameters: concentration or dose not given beside the values
T1 construct: Add 7 ug A431 cell lysate per well (EGFR source); endogenous in cells; host or cells: A431
In short: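 Receptor autophosphorylation was read by ELISA: anti-phosphotyrosine serum and an HRP-linked secondary with ABTS substrate, absorbance at 410 nm (reference 630 nm). The reaction ran 5 min with 3 µM ATP and 5 mM MnCl2 and was quenched by 20 mM EDTA. Compounds were first incubated 30 min with antibody-captured EGFR from A431 cell lysate.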

[3] = system: MET; assay: MET biochemical kinase assay; parameters: species or system human; concentration or dose not given beside the values
In short: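 Capture ELISA: anti-rabbit Fc coat, rabbit anti-MET cytoplasmic domain pAb, lysate MET captured, washed. Compound + kinase buffer (ATP, divalent metals). Readout anti-pTyr-HRP/TMB, colorimetric.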

Sequence of PDGF-R (P09619 33-1106, species assumed): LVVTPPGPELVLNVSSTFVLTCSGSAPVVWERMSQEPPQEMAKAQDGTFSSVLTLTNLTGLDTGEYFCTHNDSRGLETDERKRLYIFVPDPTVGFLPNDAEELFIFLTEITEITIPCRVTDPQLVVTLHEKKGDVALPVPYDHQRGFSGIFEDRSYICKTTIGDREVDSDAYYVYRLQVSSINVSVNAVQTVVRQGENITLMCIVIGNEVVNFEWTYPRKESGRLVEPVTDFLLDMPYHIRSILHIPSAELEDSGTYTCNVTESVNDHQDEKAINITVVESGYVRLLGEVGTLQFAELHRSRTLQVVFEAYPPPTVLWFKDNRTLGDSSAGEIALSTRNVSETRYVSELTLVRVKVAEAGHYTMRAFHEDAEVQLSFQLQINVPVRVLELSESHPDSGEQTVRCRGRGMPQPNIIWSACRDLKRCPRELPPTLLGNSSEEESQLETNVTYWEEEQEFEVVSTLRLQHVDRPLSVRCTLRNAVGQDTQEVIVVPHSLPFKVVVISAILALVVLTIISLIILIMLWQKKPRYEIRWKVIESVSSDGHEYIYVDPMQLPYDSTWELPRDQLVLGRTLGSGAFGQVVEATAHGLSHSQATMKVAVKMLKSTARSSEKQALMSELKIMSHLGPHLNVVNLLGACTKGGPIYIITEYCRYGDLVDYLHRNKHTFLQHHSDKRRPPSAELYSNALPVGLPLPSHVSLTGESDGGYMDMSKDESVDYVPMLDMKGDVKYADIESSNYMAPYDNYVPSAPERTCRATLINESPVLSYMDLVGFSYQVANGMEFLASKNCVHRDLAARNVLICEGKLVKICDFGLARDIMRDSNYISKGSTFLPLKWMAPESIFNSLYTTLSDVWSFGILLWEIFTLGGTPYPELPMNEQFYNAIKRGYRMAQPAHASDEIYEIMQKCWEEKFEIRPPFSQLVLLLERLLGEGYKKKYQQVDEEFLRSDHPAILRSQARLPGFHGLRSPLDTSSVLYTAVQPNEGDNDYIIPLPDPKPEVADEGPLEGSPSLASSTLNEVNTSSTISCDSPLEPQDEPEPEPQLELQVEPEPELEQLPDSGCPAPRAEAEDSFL
T1 sequence (P00533 25-1210): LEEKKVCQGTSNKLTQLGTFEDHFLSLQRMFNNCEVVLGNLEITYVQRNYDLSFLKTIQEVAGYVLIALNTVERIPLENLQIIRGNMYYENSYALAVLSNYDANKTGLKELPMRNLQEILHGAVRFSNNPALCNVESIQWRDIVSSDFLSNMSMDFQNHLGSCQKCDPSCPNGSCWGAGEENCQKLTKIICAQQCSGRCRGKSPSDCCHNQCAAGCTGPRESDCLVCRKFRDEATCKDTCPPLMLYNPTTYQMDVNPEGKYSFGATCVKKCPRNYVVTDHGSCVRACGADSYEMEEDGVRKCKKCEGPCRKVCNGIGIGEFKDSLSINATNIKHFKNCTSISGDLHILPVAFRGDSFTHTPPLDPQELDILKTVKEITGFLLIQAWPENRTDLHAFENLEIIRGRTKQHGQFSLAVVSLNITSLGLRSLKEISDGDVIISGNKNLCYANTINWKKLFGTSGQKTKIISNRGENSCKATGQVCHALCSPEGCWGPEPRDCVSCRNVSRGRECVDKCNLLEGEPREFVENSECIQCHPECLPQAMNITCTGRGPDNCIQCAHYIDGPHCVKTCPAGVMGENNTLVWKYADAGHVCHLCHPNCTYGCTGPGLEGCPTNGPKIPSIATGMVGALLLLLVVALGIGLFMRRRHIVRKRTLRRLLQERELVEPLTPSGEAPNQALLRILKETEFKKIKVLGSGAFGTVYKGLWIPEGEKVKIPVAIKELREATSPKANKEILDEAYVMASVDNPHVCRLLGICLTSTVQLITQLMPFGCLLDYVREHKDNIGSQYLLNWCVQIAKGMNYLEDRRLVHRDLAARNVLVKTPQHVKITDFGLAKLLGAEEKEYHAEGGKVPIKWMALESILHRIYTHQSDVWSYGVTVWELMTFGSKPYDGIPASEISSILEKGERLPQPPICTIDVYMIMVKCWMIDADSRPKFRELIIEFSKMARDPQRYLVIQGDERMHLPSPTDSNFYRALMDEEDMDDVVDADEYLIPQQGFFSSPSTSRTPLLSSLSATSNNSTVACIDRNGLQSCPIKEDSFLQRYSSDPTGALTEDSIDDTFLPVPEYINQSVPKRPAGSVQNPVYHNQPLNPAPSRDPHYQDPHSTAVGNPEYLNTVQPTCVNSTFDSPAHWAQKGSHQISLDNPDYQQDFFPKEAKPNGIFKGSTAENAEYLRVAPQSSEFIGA

| SMILES | PDGF Kinase %Inhibition [1] | Biochem EGFR %Inhibition [2] | Met Kinase % Inhibition [3] |
| --- | --- | --- | --- |
| O=C1Nc2ccc(CCCl)cc2C1=Cc1c(O)cc(O)cc1O [10722/G03] | -3.7% | 4.1% | 52.2% |
| O=C1Nc2ccc(I)cc2C1=Cc1ccc(O)cc1O [10723/B08] | 56.1% | -0.4% | 82.8% |
| O=C1Nc2ccc(I)cc2C1=Cc1cccc(Br)c1 [10723/B10] | 17.2% | 1.8% | 88.5% |
| CC(=O)Oc1ccc(C=C2C(=O)Nc3ccc(I)cc32)cc1OC(C)=O [10723/B05] | 15.2% | 36.4% | 85.1% |
| CC(C)(C)c1cc(C=C2C(=O)Nc3c(Br)cc(Br)cc32)c(O)c(C(C)(C)C)c1 [10723/A11] | 41.5% | -4.0% | 60.0% |
| CC(C)(C)c1cc(C=C2C(=O)Nc3ccc(I)cc32)c(O)c(C(C)(C)C)c1 [10723/B11] | 22.8% | -26.0% | 62.6% |
| Cc1c(Br)ccc2c1C(=Cc1ccc(O)c(O)c1O)C(=O)N2 [10723/C02] | 39.4% | 73.6% | 100.6% |
| COc1cccc(C=C2C(=O)Nc3ccc(Br)c(C)c32)c1O [10723/C03] | 42.9% | 5.9% | 88.8% |
| O=C1Nc2ccc(S(=O)(=O)Nc3ccc(C(F)(F)F)cc3)cc2C1=Cc1ccc(Br)cc1 [10717/E08] |  | 28.2% | 51.7% |
| O=C1Nc2ccc(S(=O)(=O)Nc3ccc(C(F)(F)F)cc3)cc2C1=Cc1c[nH]c2ccccc12 [10717/E06] |  | -26.1% | 24.8% |
| O=C1Nc2ccc(CCCl)cc2C1=Cc1ccccc1Br [10723/G07] | -5.6% | 15.5% | 43.0% |
| Cc1cc(C=C2C(=O)Nc3ccc(I)cc32)ccc1O [10723/B06] | 58.8% | 11.9% | 90.6% |
| CC(=O)Oc1ccc(C=C2C(=O)Nc3ccc(CCCl)cc32)cc1OC(C)=O [10723/G05] | 2.0% | 1.3% | 79.9% |
| O=C1Nc2ccc(CCCl)cc2C1=Cc1ccc(O)c(O)c1O [10723/G02] | 13.8% | 90.8% | 99.2% |
| CCOc1ccccc1C=C1C(=O)Nc2ccc(S(=O)(=O)Nc3ccc(C(F)(F)F)cc3)cc21 [10717/E02] |  | 17.2% | 24.0% |
| CNS(=O)(=O)c1ccc2c(c1)C(=Cc1[nH]c(C)c(Br)c1Br)C(=O)N2 [10717/D11] |  | 59.1% | 55.3% |
| CNS(=O)(=O)c1ccc2c(c1)C(=Cc1cc(C(C)(C)C)cc(C(C)(C)C)c1O)C(=O)N2 [10723/D11] | 24.9% | -6.2% | 42.0% |
| O=C1Nc2ccc(CCCl)cc2C1=Cc1ccc([N+](=O)[O-])s1 [10722/G04] | 11.7% | -13.3% | 63.2% |
| O=C1Nc2ccc(CCCl)cc2C1=Cc1csc([N+](=O)[O-])c1 [10722/G09] | 0.9% | -5.9% | 51.0% |
| O=C1Nc2ccc(CCCl)cc2C1=Cc1ccc(O)cc1O [10723/G08] | 7.5% | 0.1% | 79.9% |
| CNS(=O)(=O)c1ccc2c(c1)C(=Cc1ccc(OC(C)=O)c(OC(C)=O)c1)C(=O)N2 [10723/D05] | 8.2% | 3.7% | 54.5% |

| SMILES | PDGF Kinase %Inhibition [1] | Biochem EGFR %Inhibition [2] | Met Kinase % Inhibition [3] |
| --- | --- | --- | --- |
| O=C1Nc2ccc(CCCl)cc2C1=Cc1cc(O)c(O)c(Br)c1 [10723/G04] | 21.4% | 16.7% | 85.9% |
| CC(C)(C)c1cc(C=C2C(=O)Nc3ccc(S(=O)(=O)Nc4ccc(C(F)(F)F)cc4)cc32)c(O)c(C(C)(C)C)c1 [10723/E11] | 32.5% | -44.6% | 50.1% |
| COc1cccc(C=C2C(=O)Nc3ccc(CCCl)cc32)c1O [10723/G03] | 6.2% | 18.5% | 74.7% |
| COc1ccc(C=C2C(=O)Nc3ccc(CCCl)cc32)c(O)c1 [10723/G09] | -2.9% | -32.6% | 80.7% |
| COc1ccc(C=C2C(=O)Nc3c(Br)cc(Br)cc32)c(O)c1 [10723/A09] | 42.9% | -4.5% | 85.9% |
| O=C1Nc2c(Br)cc(Br)cc2C1=Cc1cccc(Br)c1 [10723/A10] | 34.6% | -24.8% | 62.1% |
| Cc1cc(C=C2C(=O)Nc3c(Br)cc(Br)cc32)ccc1O [10723/A06] | 43.6% | 20.1% | 79.1% |
| CC(=O)Oc1ccc(C=C2C(=O)Nc3ccc(Br)c(C)c32)cc1OC(C)=O [10723/C05] | 22.8% | 35.2% | 73.1% |
| COc1ccc(C=C2C(=O)Nc3ccc(I)cc32)c(O)c1 [10723/B09] | 27.6% | -12.0% | 57.7% |
| COc1cccc(C=C2C(=O)Nc3ccc(I)cc32)c1O [10723/B03] | 14.5% | -5.0% | 82.5% |
| CNS(=O)(=O)c1ccc2c(c1)C(=Cc1cccc(Br)c1)C(=O)N2 [10723/D10] | 21.4% | -9.3% | 38.1% |
| CNS(=O)(=O)c1ccc2c(c1)C(=Cc1ccc(O)cc1O)C(=O)N2 [10723/D08] | 31.1% | 4.9% | 53.5% |
| O=C1Nc2c(Br)cc(Br)cc2C1=Cc1ccccc1Br [10723/A07] | 22.1% | 3.9% | 63.2% |
| CCCCN(CCCC)c1ccc(C=C2C(=O)Nc3ccc(CCCl)cc32)cc1 [10722/G10] | 16.9% | 3.3% | 27.0% |
| CNS(=O)(=O)c1ccc2c(c1)C(=Cc1cccc(OC)c1O)C(=O)N2 [10723/D03] | 8.2% | 33.5% | 69.4% |
| O=C1Nc2ccc(I)cc2C1=Cc1ccccc1Br [10723/B07] | 24.9% | 28.8% | 86.7% |
| O=C1Nc2ccc(CCCl)cc2C1=Cc1ccc(F)cc1F [10722/G06] | -6.0% | -5.2% | 12.2% |
| O=C1Nc2ccc(S(=O)(=O)Nc3ccc(C(F)(F)F)cc3)cc2C1=Cc1cccs1 [10717/E03] |  | 11.7% | 52.2% |
| Cn1cccc1C=C1C(=O)Nc2ccc(S(=O)(=O)Nc3ccc(C(F)(F)F)cc3)cc21 [10717/E04] |  | -28.3% | 29.4% |
| Cc1ccc(C=C2C(=O)Nc3ccc(S(=O)(=O)Nc4ccc(C(F)(F)F)cc4)cc32)s1 [10717/E07] |  | -7.8% | 41.0% |
| O=C1Nc2ccc(S(=O)(=O)Nc3ccc(C(F)(F)F)cc3)cc2C1=Cc1ccc(F)cc1 [10717/E05] |  | 22.4% | 39.1% |
